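Where inhibition never reached the appropriate level, the endpoint shown equals the highest concentration tested. Otherwise, values were interpolated linearly from a five-concentration, 48-hour dose response in 96-well plates. TGI is the concentration that stops growth completely.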
Columns and labels:
Test in all cases: growth of human tumour cells (NCI), 48 h
[1] = test system: HOP-92 NSCLC
[2] = test system: HCT-15 colon
[3] = test system: MDA-MB-435
[4] = test system: SK-MEL-2 melanoma
[5] = test system: TK-10 renal
[6] = test system: MALME-3M melanoma
[7] = test system: A549 NSCLC
[8] = test system: SN12C renal
[9] = test system: MOLT-4 leukemia
[10] = test system: BT-549 breast
[11] = test system: A498 renal
[12] = test system: SK-OV-3 ovarian
[13] = test system: COLO 205 colon
[14] = test system: SK-MEL-5 melanoma
[15] = test system: SK-MEL-28 melanoma
[16] = test system: MDA-N
[17] = test system: T-47D breast
[18] = test system: HCC-2998 colon
[19] = test system: UACC-257 melanoma
[20] = test system: IGROV1 ovarian
[21] = test system: HOP-62 NSCLC
[22] = test system: HS 578T breast
[23] = test system: LOX IMVI melanoma
[24] = test system: OVCAR-4 ovarian
[25] = test system: U251 CNS
[26] = test system: SNB-75 CNS
[27] = test system: SNB-19 CNS
[28] = test system: OVCAR-8 ovarian
[29] = test system: SF-268 CNS
[30] = test system: OVCAR-5 ovarian
[31] = test system: UACC-62 melanoma
[32] = test system: HT29 colon
[33] = test system: NCI-H522 lung
[34] = test system: M14 melanoma
[35] = test system: MDA-MB-231 breast
[36] = test system: SF-295 CNS
[37] = test system: SW-620 colon
[38] = test system: NCI-H226 lung
[39] = test system: EKVX NSCLC
[40] = test system: RXF 393 renal
[41] = test system: DU-145 prostate
[42] = test system: 786-0 renal
[43] = test system: MCF7 breast
[44] = test system: UO-31 renal
[45] = test system: CAKI-1 renal
[46] = test system: NCI-H23 lung
[47] = test system: ACHN renal
[48] = test system: CCRF-CEM leukemia
[49] = test system: SF-539 CNS
[50] = test system: HCT-116 colon
[51] = test system: NCI-H460 lung
[52] = test system: KM12 colon
[53] = test system: PC-3 prostate
[54] = test system: HL-60(TB) leukemia
[55] = test system: K-562 leukemia
[56] = test system: OVCAR-3 ovarian
[57] = test system: NCI/ADR-RES ovarian
[58] = test system: RPMI-8226 leukemia

## CC1=C(C)C(=O)C(C2=C(C3=CC(=O)C(C)=C(C)C3=O)C(=O)C(C)=C(C)C2=O)=CC1=O
[1]
  TGI: > 51.2 µM
[2]
  TGI: > 61.8 µM
[3]
  TGI: 14.2 µM
[4]
  TGI: 31 µM
[5]
  TGI: 27 µM
[6]
  TGI: 11.4 µM
[7]
  TGI: > 84.4 µM
[8]
  TGI: 47.9 µM
[9]
  TGI: > 100 µM
[10]
  TGI: 21.6 µM
[11]
  TGI: 21.5 µM
[12]
  TGI: 32.6 µM
[13]
  TGI: 8.07 µM
[14]
  TGI: 5.85 µM
[15]
  TGI: 14 µM
[16]
  TGI: > 20.2 µM
[17]
  TGI: 7.32 µM
[18]
  TGI: 28.6 µM
[19]
  TGI: 28.4 µM
[20]
  TGI: 31.2 µM
[21]
  TGI: 36.5 µM
[22]
  TGI: > 79.7 µM
[23]
  TGI: > 21.3 µM
[24]
  TGI: 4.57 µM
[25]
  TGI: > 38.2 µM
[26]
  TGI: 33.3 µM
[27]
  TGI: > 100 µM
[28]
  TGI: > 47.1 µM
[29]
  TGI: 34.5 µM
[30]
  TGI: > 34.6 µM
[31]
  TGI: 25.9 µM
[32]
  TGI: 9.02 µM
[33]
  TGI: 5.21 µM
[34]
  TGI: > 40.7 µM
[35]
  TGI: 5.29 µM
[36]
  TGI: 33.8 µM
[37]
  TGI: 13 µM
[38]
  TGI: 31.8 µM
[39]
  TGI: > 70 µM
[40]
  TGI: 5.16 µM
[41]
  TGI: 30 µM
[42]
  TGI: > 49.4 µM
[43]
  TGI: > 21.1 µM
[44]
  TGI: 34.1 µM
[45]
  TGI: 8.87 µM
[46]
  TGI: 43.1 µM
[47]
  TGI: 18.3 µM
[48]
  TGI: > 100 µM
[49]
  TGI: 4.99 µM
[50]
  TGI: > 100 µM
[51]
  TGI: 29.6 µM
[52]
  TGI: 30.4 µM
[53]
  TGI: 16 µM
[54]
  TGI: > 100 µM

## Nc1cnc(Nc2cccc3ccccc23)o1
[2]
  TGI: > 10 µM
[3]
  TGI: > 10 µM
[4]
  TGI: > 10 µM
[5]
  TGI: > 10 µM
[6]
  TGI: > 10 µM
[7]
  TGI: > 10 µM
[8]
  TGI: > 10 µM
[11]
  TGI: > 10 µM
[12]
  TGI: > 10 µM
[13]
  TGI: > 10 µM
[14]
  TGI: > 10 µM
[15]
  TGI: > 10 µM
[16]
  TGI: > 10 µM
[17]
  TGI: > 10 µM
[18]
  TGI: > 10 µM
[19]
  TGI: > 10 µM
[20]
  TGI: > 10 µM
[21]
  TGI: > 10 µM
[22]
  TGI: > 10 µM
[23]
  TGI: > 10 µM
[24]
  TGI: > 10 µM
[25]
  TGI: > 10 µM
[26]
  TGI: > 10 µM
[27]
  TGI: > 10 µM
[28]
  TGI: > 10 µM
[29]
  TGI: > 10 µM
[31]
  TGI: > 10 µM
[32]
  TGI: > 10 µM
[55]
  TGI: > 10 µM
[33]
  TGI: > 10 µM
[34]
  TGI: > 10 µM
[35]
  TGI: > 10 µM
[36]
  TGI: > 10 µM
[37]
  TGI: > 10 µM
[38]
  TGI: > 10 µM
[39]
  TGI: > 10 µM
[40]
  TGI: > 10 µM
[41]
  TGI: > 10 µM
[56]
  TGI: > 10 µM
[42]
  TGI: > 10 µM
[43]
  TGI: > 10 µM
[44]
  TGI: > 10 µM
[45]
  TGI: > 10 µM
[46]
  TGI: > 10 µM
[47]
  TGI: > 10 µM
[57]
  TGI: > 10 µM
[48]
  TGI: > 10 µM
[49]
  TGI: > 10 µM
[50]
  TGI: > 10 µM
[51]
  TGI: > 10 µM
[52]
  TGI: > 10 µM
[53]
  TGI: > 10 µM
[54]
  TGI: > 10 µM

## O=C1c2c(O)ccc(O)c2C(=O)c2c(NCCNC(=O)C(O)C(O)C(O)C(O)CO)ccc(NCCNC(=O)C(O)C(O)C(O)C(O)CO)c21 (stereo not drawn)
[2]
  TGI: 1.04 µM
[4]
  TGI: 2.88 µM
[5]
  TGI: 1.37 µM
[6]
  TGI: 2.65 µM
[7]
  TGI: 1.53 µM
[8]
  TGI: 0.0118 µM
[10]
  TGI: 2.36 µM
[12]
  TGI: 1.41 µM
[13]
  TGI: 0.578 µM
[14]
  TGI: 0.522 µM
[16]
  TGI: 0.601 µM
[17]
  TGI: 2.35 µM
[18]
  TGI: 0.483 µM
[19]
  TGI: 7.24 µM
[20]
  TGI: 1.45 µM
[21]
  TGI: 1.13 µM
[22]
  TGI: 2.7 µM
[24]
  TGI: 0.771 µM
[26]
  TGI: 1.23 µM
[28]
  TGI: 0.528 µM
[29]
  TGI: 1.98 µM
[30]
  TGI: 1.88 µM
[31]
  TGI: 1.04 µM
[32]
  TGI: 0.399 µM
[33]
  TGI: 0.218 µM
[34]
  TGI: 1.39 µM
[35]
  TGI: 0.633 µM
[36]
  TGI: 0.0291 µM
[38]
  TGI: 0.524 µM
[39]
  TGI: 1.42 µM
[40]
  TGI: 0.812 µM
[41]
  TGI: 0.254 µM
[56]
  TGI: 2.29 µM
[42]
  TGI: 0.0531 µM
[43]
  TGI: 0.243 µM
[44]
  TGI: 0.352 µM
[46]
  TGI: 0.417 µM
[47]
  TGI: 0.101 µM
[57]
  TGI: 2.24 µM
[49]
  TGI: 0.44 µM
[50]
  TGI: 0.197 µM
[51]
  TGI: 0.0159 µM
[52]
  TGI: 0.534 µM
[53]
  TGI: 1.51 µM
[58]
  TGI: 0.202 µM
[54]
  TGI: 0.0149 µM

Source: PubChem BioAssay (NCI)
